Data from US6538008B1, “Combination of a selective NMDA NR2B antagonist and an opioid analgesic” (Merck Sharpe & Dohme Limited, priority 1998, dated 2003).
Several values for one entry are separate records, joined by “and”; a condition that tells them apart may be missing. Equal values may be shown once.

Key:
[1] = test system: mechanical allodynia induced by sciatic nerve ligation; experiment: Sciatic nerve ligation assay of neuropathic pain (mechanical allodynia, modified Randall-Selitto algesiometer); assay type: in vivo, rat; settings: for effect on mechanical allodynia induced by sciatic nerve ligation: in words, Example 5; for ID50 Antinociception Rat Ligation: reversal of mechanical allodynia 7 days after ligation, compound given 1 h before test, route given per compound
[2] = test system: rotarod performance (motor co-ordination); experiment: Motor co-ordination and behaviour, accelerating rotarod; settings: for ID50 Motor Impairment Rat Rotarod: accelerating rotarod 1 h after drug, route given per compound
Experimental: (§1) Anti-algesic activity was assessed using an assay of neuropathic pain in rats (sciatic nerve ligation) and in a carrageenan-induced hyperalgesia assay. Motor impairment was measured using an accelerating rotarod.
(§2) For sciatic nerve ligation, male Sprague Dawley rats (180-220 g) were anaesthetised with isofluorane, the left sciatic nerve exposed and 4 chromic catgut (4.0) ligatures were tied loosely around the nerve (spaced 1-2 mm apart) immediately proximal to the point of trifurcation. In sham-operated animals, the same dissection was performed but without ligation. Responses to mechanical pressure were assessed 7 days after ligation using a modified Randall-Selitto algesiometer in which constant force of 40 mmHg was applied to the hind paw and the latency to struggle was recorded as the reaction time. Mechanical allodynia was defined as the difference in reaction time for sham and ligature rats. Reaction times for drug treated rats were expressed as a percentage of this response. Compounds were administered 1 h before the test. In the carrageenan-induced hyperalgesia assay, male Sprague Dawley rats (100-120 g) received an intraplantar injection of carrageenan (4.5 mg) and mechanical thresholds were determined 3 h later using a modified Ugo Basile Algesiometer. Control rats received saline (0.15 ml i.pl.). Hyperalgesia was defined as the difference in vocalisation threshold for saline- and carrageenan-injected rats. Paw pressure scores for drug-treated rats were expressed as a percentage of this response. Compounds were administered 2 h after carrageenan. To determine the effects of the compounds on motor co-ordination, male Sprague Dawley rats (160-180 g) were first trained to remain for 120 s on the rotarod apparatus revolving at 12 r.p.m. on the morning before the test. […] Lamotrigine, gabapentin and (±)-CP-101,606 were suspended in 0.5% methocel and administered orally (1 ml/kg). Ifenprodil, L-701.324, L-687,414 and (±)-Ro25-6981 were dissolved or suspended in 0.5% methocel and administered intraperitoneally (1 ml/kg). MK-801 was dissolved in distilled water and given i.p. (1 ml/kg). Doses of compounds refer to the free base.
(§3) Male Sprague Dawley rats (100-120 g) received an intraplantar injection of carrageenan (4.5 mg) and mechanical thresholds were determined 3 h later using a modified Ugo Basile Algesiometer. Control rats received saline (0.15 ml i.pl.). Hyperalgesia was defined as the difference in vocalisation threshold for saline- and carrageenan-injected rats. Paw pressure scores for drug-treated rats were expressed as a percentage of this response. Compounds were administered 2 h after carrageenan. To determine the effects of morphine and (±)-Ro25-6981 on motor co-ordination, male Sprague Dawley rats (160-180 g) were first trained to remain for 120 s on the rotarod apparatus revolving at 12 r.p.m. on the morning before the test.
(§4) (±)-Ro25-6981 was suspended in 0.5% methocel and administered intraperitoneally (1 ml/kg). Morphine HCl was dissolved in saline and given subcutaneously (1 ml/kg). Doses of compounds refer to the free base.

[3] = test system: mechanical hyperalgesia induced by carrageenan; experiment: Carrageenan-induced mechanical hyperalgesia assay (modified Ugo Basile Algesiometer); assay type: in vivo, rat; settings: for ID50 Antinociception Rat Carrageenan: inhibition of mechanical hyperalgesia 3 h after carrageenan 4.5 mg i.pl., compound given 2 h after carrageenan, route given per compound
Experimental: as §1, §2, §3, §4

[4] = test system: rat hyperalgesic and nociceptive tests; settings: at doses showing no behavioural abnormality; cited from earlier work

Row | Molecule | effect on mechanical allodynia induced by sciatic nerve ligation [1] | ID50 Antinociception Rat Ligation [1] [mg/kg] | ID50 Motor Impairment Rat Rotarod [2] | ID50 Antinociception Rat Carrageenan [3] [mg/kg] | also measured
1 | C[C@@H](CN1CCC(Cc2ccccc2)CC1)[C@@H](O)c1ccc(O)cc1 (racemic) [(±)-Ro25-6981] | dose-dependently reversed mechanical allodynia | 3.8 | ≧100 mg/kg | 5.7 | effect on rotarod performance ([2]; 1 mg/kg i.p. alone (FIG. 3)): no effect; inhibition of rotarod performance ([2]; 100 mg/kg i.p.): 47%; antinociception in carrageenan-induced hyperalgesia ([3]; 1 mg/kg i.p., alone): did not cause significant antinociception; effect on mechanical hyperalgesia induced by carrageenan ([3]; 10 and 30 mg/kg i.p., alone (FIG. 1)): dose-dependent reversal of mechanical hyperalgesia
2 | C[C@@H]([C@@H](O)c1ccc(O)cc1)N1CCC(O)(c2ccccc2)CC1 [CP-101,606] | – | – | – | – | analgesic activity [4]: Potent analgesic activity
3 | NCC1(CC(=O)O)CCCCC1 [Gabapentin, gabapentin] | reversed mechanical allodynia | 87 | 133 mg/kg | 50 | behavioural effects observed ([2]; doses of 30-300 mg/kg): motor impairments (ataxia)
4 | CC(C(O)c1ccc(O)cc1)N1CCC(Cc2ccccc2)CC1 (centres unmarked) [Ifenprodil, ifenprodil] | reversed mechanical allodynia | 9.5 | ≧50 mg/kg | 17 | adverse effects observed (ptosis, piloerection, hypoactivity, hyperventilation) ([2]; 50 mg/kg): severe adverse effects; impairment in rotarod performance ([2]; 50 mg/kg): approximately 50%
5 | C[C@@H]1CN(O)C(=O)[C@@H]1N [L-687,414] | dose-dependently reversed mechanical allodynia | 9.8 | 53.3 mg/kg and 53 mg/kg | 50 | behavioural effects observed ([2]; 100 and 300 mg/kg i.p.): body rolling and ataxia
6 | O=c1[nH]c2cc(Cl)ccc2c(O)c1-c1cccc(Oc2ccccc2)c1 [L-701,324] | dose-dependently reversed mechanical allodynia | 2.6 | 1.9 mg/kg | 2.5 | behavioural effects observed ([2]; 10 and 30 mg/kg i.p.): ataxia was evident
7 | Nc1nnc(-c2cccc(Cl)c2Cl)c(N)n1 [Lamotrigine, lamotrigine] | reversed mechanical allodynia | 11 | >500 mg/kg | 207 | inhibition in the time spent on the rotarod ([2]; 500 mg/kg p.o.): 40%; other effects observed besides rotarod inhibition ([2]; 500 mg/kg p.o.): no other effects were observed
8 | C[C@]12N[C@H](Cc3ccccc31)c1ccccc12 [MK-801] | dose-dependently reversed mechanical allodynia | 0.19 | 0.22 mg/kg | 0.21 | behavioural effects observed ([2]; 0.3 and 1 mg/kg doses): Body rolling. and head weaving
9 | CN1CC[C@]23c4c5ccc(O)c4O[C@H]2[C@@H](O)C=C[C@H]3[C@H]1C5 [morphine] | – | – | – | – | effect on rotarod performance ([2]; 3 mg/kg s.c. alone (FIG. 3)): significant impairment; effect on rotarod performance ([2]; 0.3 and 1 mg/kg s.c. alone (FIG. 3)): no effect; effect on mechanical hyperalgesia induced by carrageenan ([3]; 1 mg/kg s.c., alone (FIG. 2)): completely reversed mechanical hyperalgesia; effect on mechanical hyperalgesia induced by carrageenan ([3]; 0.1 and 0.3 mg/kg s.c., alone (FIG. 2)): without effect; percent inhibition of hyperalgesia ([3]; morphine 0.1 mg/kg s.c. alone): 11%; percent inhibition of hyperalgesia ([3]; morphine 0.3 mg/kg s.c. alone): 31%
10 | (±)-CP-101,606 | dose-dependently reversed mechanical allodynia | 6.1 | >300 mg/kg | 37 | rotarod latency compared to vehicle-treated rats ([2]; 300 mg/kg dose): significant increase in latency; effect on motor performance on the rotarod ([2]; up to 300 mg/kg p.o.): did not inhibit motor performance
